Measurements from patent US8633324B2, “Denibulin di-hydrochloride” (Medicinova, Inc., priority 2011, dated 2014).
Where a name gives a salt, the structure may show the parent alone. Read-outs that look alike come from different tables or passages of the source.

Tests used:
Type in all cases: physicochemical
[1] = Solubility of MN-029 di-hydrochloride in aqueous citric acid; details: aqueous citric acid (4.75 mg/ml), 25° C., 12 hours shaking
Excerpt: Without being held to any particular theory, the present inventor believes that the enhanced solubility of the di-hydrochloride salt is enhanced by the lower pH of the resulting solution. That is, the reduced pH of a solution of the di-hydrochloride of MN-029 improves its aqueous solubility. To test this theory, the present inventor measured the solubility of MN-029 di-hydrochloride in aqueous citric acid and in citrate buffers at different pH values. Two samples of the di-hydrochloride salt in aqueous citric acid were prepared by adding 10 ml of an aqueous citric acid solution to 36.9 mg and 74.5 mg of MN-029 di-hydrochloride salt in a vial.
After equilibration with shaking at 25° C. for 12 hours, visual inspection of the solution in each vial indicated a clear colorless solution with no solid residue. Accordingly, the solubility MN-029 di-hydrochloride in aqueous citric acid (4.75 mg/ml) was calculated to exceed […] of the di-hydrochloride per milliliter of aqueous citric acid.

[2] = Solubility as a function of pH in buffers without and with 15% HPBCD; details: thermodynamic from solid
Procedure: Buffers were prepared to cover a pH range of 2 to 7. Approximately 5 to 10 milligrams of drug was weighed into an HPLC vial to which 1.00 mL of the appropriate buffer was added. The solutions were vortexed briefly and were then shaken for five days on an orbital shaker. The prolonged shaking was carried out because slow equilibration had been observed during the initial formulation studies with different salt forms of MN-029.
Buffers with 15% HPBCD were prepared from the previous buffers. One and a half grams of HPBCD was weighed into each of several 10 mL volumetric flasks. HPBCD was dissolved in and diluted to volume with the appropriate buffer. 15 to 20 milligrams of MN-029 di-hydrochloride was weighed out into an tared HPLC vial. To the di-hydrochloride salt was added 1.00 mL of each buffer and the solution was vortexed briefly to dissolve the salt. The solutions were placed on an orbital shaker for five days. Solubility results are shown in Table 10, and the pH solubility profile for the drug in the absence of HPBCD is shown in FIG. 8.

[3] = Gravimetric Vapor Sorption (GVS) hygroscopicity; details: for Weight change: GVS
Excerpt: Moreover, neither the mono-hydrochloride salt or the di-hydrochloride salt of MN-029 show any significant change in phase as measured by XRPD analysis of samples subjected to GVS analysis (see FIG. 6).

[4] = Log P, Log Pion, Log D by potentiometric titration (Sirius GlpKa, octanol:water); details: octanol:ionic-strength adjusted water
Excerpt: Most drugs have an ideal log P value and any deviation from this idealized value results in reduced absorption, slow transport of drug to the site of action and consequently, a decrease in biological activity. Table 8, illustrates the predicted and measured values for partition coefficients of MN-029 di-hydrochloride. The data was collected by potentiometric titration using a Sirius GlpKa instrument using three ratios of octanol:ionic-strength adjusted water to generate Log P, Log Pion and Log D values and the raw data was analyzed using Refinement Pro Software V.1.0. The predicted value of Log P was obtained using ACD V. software and Syracuse KOWWIN V.1.67 softwares.

[5] = Osmolality and pH of solutions in water and in 15% HPBCD
Procedure: Solutions were prepared by weighing MN-029 di-hydrochloride salt into 10-mL volumetric flasks. The drug was dissolved in water with vortexing, and samples were diluted to volume with water. Solutions of 1, 2, 4, 6 and 8 mg/mL were made according to this procedure. The samples were allowed to sit at room temperature overnight prior to pH and osmolality measurements.
All samples were clear except for the 8 mg/mL solution, which was initially clear but precipitated upon sitting overnight. As shown in Table 10 and in FIGS. 9 and 10, the pH declined in an almost linear fashion with increasing drug concentration while osmolality increased linearly with concentration up to 6 mg/mL.
The pH and osmolality were also measured for solutions of MN-029 di-hydrochloride salt in a 15% solution of hydroxypropyl-β-cyclodextrin (HPBCD). Solutions of 5, 10, 15, 20, and 30 mg/mL were prepared for analysis. The solutions were made by weighing out an appropriate amount of the compound into HPLC vials to which 1.00 mL of 15% HPBCD was added with brief vortexing. Although solutions were clear upon mixing, they were shaken overnight on an orbital shaker to assure equilibration. All solutions remained clear after overnight shaking. HPBCD at a concentration of 15% was sufficient to solubilize MN-029 di-hydrochloride up to a concentration of 30 mg/mL. As shown in Table 11 and in FIGS. 11 and 12, the pH decreased almost linearly with increasing MN-029 di-hydrochloride concentration, while the osmolality increased linearly. The dotted lines on the pH graphs (FIGS. 9 and 11) connect the data points for clarity while the dotted lines on the osmolality graphs (FIGS. 10 and 12) are linear regressions of the data which are extrapolated back to zero drug concentration.

[6] = In Deionized Water, 8.00* mg/mL (precipitated upon sitting overnight)

Structure (SMILES): COC(=O)Nc1nc2ccc(Sc3ccc(NC(=O)[C@H](C)N)cc3)cc2[nH]1 [MN-029 di-hydrochloride, carbamic acid N-[6-[[4-[[(2S)-2-amino-1-oxopropyl]amino]phenyl]thio]-1H-benzimidazol-2-yl]-methyl ester di-hydrochloride]
- solubility in aqueous citric acid [1]: exceed 7.54 mg of the di-hydrochloride per milliliter of aqueous citric acid
- solubility at 5 days ([2]; aqueous buffer with 15% HPBCD, aqueous with cosolvent or surfactant or cyclodextrin, pH 2 to pH 6.9, in the presence of 15% HPBCD, read-out: solubility across the tested pH range): > 20 mg/mL
- solubility at 5 days ([2]; aqueous buffer, pH 2, aqueous buffer, Without HPBCD, buffer pH 2.0, final pH 2.10, five days shaking, read-out: MN-029 Solubility): ~6 mg/mL
- Weight change ([3]; 0% RH to 40% RH): +0.56 % w/w
- Weight change ([3]; 40% RH to 90% RH, listed as A063886, di-hydrochloride): Reversible uptake of +0.86% w/w
- Weight change ([3]; 40% RH to 90% RH, listed as MN029*2HCl, di-hydrochloride): +0.86 % w/w
- Weight change ([3]; 90% RH to 0% RH): −1.45 % w/w
- XRPD of residue after GVS ([3]; sample subjected to GVS): No significant difference
- Measured LogPion(cation) [4]: 0.93
- Measured LogD7.4 ([4]; pH 7.4): 2.10
- logD ([4]; pH 7.4, read-out: Measured LogD7.4): 2.1
- logP ([4]; read-out: Measured LogP): 2.64
- solubility ([5]; 15% HPBCD solution, aqueous with cosolvent or surfactant or cyclodextrin, thermodynamic from solid, read-out: concentration solubilized by 15% HPBCD (solutions clear after overnight shaking)): ≥ 30 mg/mL
- Osmolality ([5]; In 15% HPBCD, 5.35 mg/mL): 162 mOsm/kg
- pH ([5]; In 15% HPBCD, 5.35 mg/mL): 2.40
- Osmolality ([5]; In 15% HPBCD, 10.1 mg/mL): 182 mOsm/kg
- pH ([5]; In 15% HPBCD, 10.1 mg/mL): 2.21
- Osmolality ([5]; In 15% HPBCD, 15.3 mg/mL): 203 mOsm/kg
- pH ([5]; In 15% HPBCD, 15.3 mg/mL): 2.10
- Osmolality ([5]; In 15% HPBCD, 20.1 mg/mL): 221 mOsm/kg
- pH ([5]; In 15% HPBCD, 20.1 mg/mL): 2.04
- Osmolality ([5]; In 15% HPBCD, 30.1 mg/mL): 259 mOsm/kg
- pH ([5]; In 15% HPBCD, 30.1 mg/mL): 1.89
- Osmolality ([5]; In Deionized Water, 1.05 mg/mL): 6 mOsm/kg
- pH ([5]; In Deionized Water, 1.05 mg/mL): 3.25
- Osmolality ([5]; In Deionized Water, 2.04 mg/mL): 11 mOsm/kg
- pH ([5]; In Deionized Water, 2.04 mg/mL): 3.03
- Osmolality ([5]; In Deionized Water, 4.03 mg/mL): 22 mOsm/kg
- pH ([5]; In Deionized Water, 4.03 mg/mL): 2.82
- Osmolality ([5]; In Deionized Water, 5.96 mg/mL): 32 mOsm/kg
- pH ([5]; In Deionized Water, 5.96 mg/mL): 2.63
- Osmolality [5, 6]: 36* mOsm/kg
- pH [5, 6]: 1.90*
